From patent US20110086886A2, “INSECTICIDAL ISOXAZOLINES” (Bayer CropScience AG, priority 2006, published 2011)

Key:
Spodoptera litura larvae = assay: Test for Spodoptera litura larvae (leaf dip); assay type: in vivo; details: effective component concentration of 500 ppm, 3rd-instar larvae on dipped sweet potato leaves, after 7 days; for pest or weed control at 500 ppm: foliar, 168 h, read-out: insecticidal ratio
Method: (§1) In order to obtain a preparation of a proper active compound, 1 part by weight of an active compound was mixed with the stated amounts of solvent and emulsifier and the mixture was diluted to a specified concentration with water.
The leaves of sweat potatoes were dipped in the test solution diluted to a specified concentration with water. After these leaves were dried in air to remove the chemical solution, they were placed in a Petri dish of 9 cm in diameter, in which 10 Spodoptera litura larvae of the 3rd-instar were set free. The Petri dish was placed in a thermostatic chamber kept at 25° C. and the leaves of sweat potatoes were added after 2 days and 4 days, to examine the number of dead larvae after 7 days, thereby calculating the insecticidal ratio of the chemical solution.
In this test, an average of the results in two Petri dishes in one section was calculated.

Aulacophora femoralis = assay: Test for Aulacophora femoralis (spray test); assay type: in vivo; details: effective component concentration of 500 ppm; 2nd-instar, dipped cucumber leaves; after 7 days
Method: as §1
The leaves of cucumbers were dipped in the aqueous solution diluted to a specified concentration with water. After the chemical solution was dried in air, these leaves were placed in a plastic cup, in which sterilized black soil was placed. 5 Aulacophora femoralis of the 2nd-instar were set free in the soil, to examine the number of dead insects after 7 days, thereby calculating the insecticidal ratio of the chemical solution.

Compound	insecticidal ratio (Spodoptera litura larvae) [%]	insecticidal ratio (Aulacophora femoralis) [%]	pest or weed control at 500 ppm (Spodoptera litura larvae) [%]
FC(F)(F)C1(c2cc(Cl)cc(Cl)c2)CC(c2ccc(-n3cnnn3)c(Br)c2)=NO1 (stereo not drawn) [Compound 151]	100	100	
N#Cc1cnn(-c2ccc(C3=NOC(c4cc(Cl)cc(Cl)c4)(C(F)(F)F)C3)cc2)c1 (stereo not drawn) [Compound 7]	100		
N#Cc1cc(C2=NOC(c3cc(Cl)cc(Cl)c3)(C(F)(F)F)C2)ccc1-n1cc([N+](=O)[O-])cn1 (stereo not drawn) [Compound 21]	100	100	
N#Cc1cc(C2=NOC(c3cccc(C(F)(F)F)c3)(C(F)(F)F)C2)ccc1-n1cncn1 (racemic) [Compound 126]	100	100	
FC(F)(F)c1cc(C(F)(F)F)cc(C2(C(F)(F)F)CC(c3ccc(-n4cncn4)c(Br)c3)=NO2)c1 (racemic) [Compound 134]	100	100	
FC(F)(F)C1(c2cc(Cl)cc(Cl)c2)CC(c2ccc(-n3cnnn3)c(I)c2)=NO1 (stereo not drawn) [Compound 152]	100		
O=[N+]([O-])c1cc(C2=NOC(c3cc(Cl)cc(Cl)c3)(C(F)(F)F)C2)ccc1-n1cc(F)cn1 (stereo not drawn) [Compound 25]	100	100	
Cc1cc(C2=NOC(c3cc(Cl)cc(Cl)c3)(C(F)(F)F)C2)ccc1-n1cncn1 (racemic) [Compound 99]	100	100	
FC(F)(F)C1(c2cccc(Cl)c2)CC(c2ccc(-n3cncn3)cc2)=NO1 (stereo not drawn) [Compound 86]	100	100	
N#Cc1cc(C2=NOC(c3ccccc3)(C(F)(F)F)C2)ccc1-n1cncn1 (stereo not drawn) [Compound 80]		100	
CCC(=O)Nc1cc(C2=NOC(c3cc(Cl)cc(Cl)c3)(C(F)(F)F)C2)ccc1-n1cncn1 (racemic) [Compound 107]	100	100	
FC(F)(F)c1ccc(C2(C(F)(F)F)CC(c3ccc(-n4cncn4)cc3)=NO2)cc1 (racemic) [Compound 123]	100		
O=[N+]([O-])c1cc(C2=NOC(c3cccc(Cl)c3)(C(F)(F)F)C2)ccc1-n1cnnn1 (racemic) [Compound 147]		100	
FC(F)(F)C1(c2cc(Cl)cc(Cl)c2)CC(c2ccc(-n3cnnc3)cc2)=NO1 (stereo not drawn) [Compound 141, 4-{4-[5-(3,5-dichlorophenyl)-5-(trifluoromethyl)-4,5-dihydroisoxazol-3-yl]phenyl}-4H-1,3,4-triazole]			100
N#Cc1cc(C2=NOC(c3cc(Cl)cc(Cl)c3)(C(F)(F)F)C2)ccc1-n1cccn1 (stereo not drawn) [Compound 13, 5-[5-(3,5-dichlorophenyl)-5-(trifluoromethyl)-4,5-dihydroisoxazol-3-yl]-2-(1H-pyrazol-1-yl)benzonitrile]			100
N#Cc1cc(C2=NOC(c3cc(Cl)cc(Cl)c3)(C(F)(F)F)C2)ccc1-n1cc(Br)cn1 (stereo not drawn) [Compound 18]	100		
FC(F)(F)C1(c2cc(Cl)cc(Cl)c2)CC(c2ccc(-n3cc(Cl)cn3)cc2)=NO1 (stereo not drawn) [Compound 4]	100		
Fc1cc(C2=NOC(c3cc(Cl)cc(Cl)c3)(C(F)(F)F)C2)ccc1-n1cncn1 (racemic) [Compound 93]	100		
O=[N+]([O-])c1cc(C2=NOC(c3cccc(C(F)(F)F)c3)(C(F)(F)F)C2)ccc1-n1cnnn1 (stereo not drawn) [Compound 161]	100	100	
O=[N+]([O-])c1cc(C2=NOC(c3cccc(C(F)(F)F)c3)(C(F)(F)F)C2)ccc1-n1ncnn1 (stereo not drawn) [Compound 176]	100		
COc1cc(C2=NOC(c3cc(Cl)cc(Cl)c3)(C(F)(F)F)C2)ccc1-n1cncn1 (racemic) [Compound 103]	100	100	
N#Cc1cc(C2=NOC(c3cc(Cl)cc(Cl)c3)(C(F)(F)F)C2)ccc1-n1cc(I)cn1 (stereo not drawn) [Compound 19]	100		
O=[N+]([O-])c1cc(C2=NOC(c3cc(Cl)cc(Cl)c3)(C(F)(F)F)C2)ccc1-n1cc(Cl)cn1 (stereo not drawn) [Compound 26]	100		
FC(F)(F)C1(c2cc(Cl)cc(Cl)c2)CC(c2ccc(-n3cncn3)c(I)c2)=NO1 (racemic) [Compound 98]	100	100	
N#Cc1cc(C2=NOC(c3cc(C(F)(F)F)cc(C(F)(F)F)c3)(C(F)(F)F)C2)ccc1-n1cnnn1 (stereo not drawn) [Compound 165]	100	100	
FC(F)(F)C1(c2cc(Cl)cc(Cl)c2)CC(c2ccc(-n3cccn3)c(Cl)c2)=NO1 (stereo not drawn) [Compound 8]	100		
FC(F)(F)c1cc(C(F)(F)F)cc(C2(C(F)(F)F)CC(c3ccc(-n4cncn4)cc3)=NO2)c1 (racemic) [Compound 132]	100	100	

Compound	insecticidal ratio (Spodoptera litura larvae) [%]	insecticidal ratio (Aulacophora femoralis) [%]	pest or weed control at 500 ppm (Spodoptera litura larvae) [%]
FC(F)(F)c1cc(C(F)(F)F)cc(C2(C(F)(F)F)CC(c3ccc(-n4cnnn4)cc3)=NO2)c1 (stereo not drawn) [Compound 162]	100		
Cc1cnn(-c2ccc(C3=NOC(c4cc(Cl)cc(Cl)c4)(C(F)(F)F)C3)cc2[N+](=O)[O-])c1 (stereo not drawn) [Compound 24]	100		
N#Cc1cc(C2=NOC(c3cccc(Cl)c3)(C(F)(F)F)C2)ccc1-n1cncn1 (stereo not drawn) [Compound 89]	100	100	
FC(F)(F)C1(c2cc(Cl)cc(Cl)c2)CC(c2ccc(-n3cncn3)cc2)=NO1 (racemic) [Compound 91]	100	100	
N#Cc1cc(C2=NOC(c3cccc(C(F)(F)F)c3)(C(F)(F)F)C2)ccc1-n1cnnn1 (stereo not drawn) [Compound 160]	100	100	
FC(F)(F)C1(c2cc(Cl)cc(Cl)c2)CC(c2ccc(-n3cncn3)cc2Cl)=NO1 (racemic) [Compound 96]	100		
O=[N+]([O-])c1cc(C2=NOC(c3cccc(Cl)c3)(C(F)(F)F)C2)ccc1-n1cncn1 (racemic) [Compound 90]	100	100	
FC(F)(F)C1(c2cc(Cl)cc(Cl)c2)CC(c2ccc(-n3cncn3)nc2)=NO1 (racemic) [Compound 114]	100	100	
FC(F)(F)C1(c2cc(Cl)cc(Cl)c2)CC(c2ccc(-n3cncn3)c(Br)c2)=NO1 (racemic) [Compound 97]	100	100	
O=[N+]([O-])c1cc(C2=NOC(c3cc(Cl)cc(Cl)c3)(C(F)(F)F)C2)ccc1-n1cc(Br)cn1 (stereo not drawn) [Compound 27]	100		
N#Cc1cc(C2=NOC(c3cc(Cl)cc(Cl)c3)(C(F)(F)F)C2)ccc1-n1cc(F)cn1 (stereo not drawn) [Compound 16]	100		
FC(F)(F)C1(c2cc(Cl)cc(Cl)c2)CC(c2ccc(-n3ccnc3)cc2)=NO1 (stereo not drawn) [Compound 48]	100		
O=[N+]([O-])c1cc(C2=NOC(c3cc(F)cc(F)c3)(C(F)(F)F)C2)ccc1-n1cncn1 (stereo not drawn) [Compound 85]		100	
N#Cc1cc(C2=NOC(c3cc(C(F)(F)F)cc(C(F)(F)F)c3)(C(F)(F)F)C2)ccc1-n1cc([N+](=O)[O-])cn1 (stereo not drawn) [Compound 47]	100		
FC(F)(F)c1cc(C(F)(F)F)cc(C2(C(F)(F)F)CC(c3ccc(-n4cncn4)c(Cl)c3)=NO2)c1 (racemic) [Compound 133]	100		
O=[N+]([O-])c1cc(C2=NOC(c3cc(Cl)cc(Cl)c3)(C(F)(F)F)C2)ccc1-n1nccn1 (stereo not drawn) [Compound 72]	100		
O=[N+]([O-])c1cc(C2=NOC(c3cc(Cl)cc(Cl)c3)(C(F)(F)F)C2)ccc1-n1cc(C(F)(F)F)cn1 (stereo not drawn) [Compound 29]	100		
O=[N+]([O-])c1cc(C2=NOC(c3cc(Cl)cc(Cl)c3)(C(F)(F)F)C2)ccc1-n1cc(I)cn1 (stereo not drawn) [Compound 28]	100		
FC(F)(F)C1(c2cc(Cl)cc(Cl)c2)CC(c2ccc(-n3cccn3)cc2)=NO1 (stereo not drawn) [Compound 2]	100		
O=[N+]([O-])c1cc(C2=NOC(c3cc(Cl)cc(Cl)c3)(C(F)(F)F)C2)ccc1-n1cccn1 (stereo not drawn) [Compound 23]	100		
O=[N+]([O-])c1cnn(-c2ccc(C3=NOC(c4cc(Cl)cc(Cl)c4)(C(F)(F)F)C3)cc2Br)c1 (stereo not drawn) [Compound 12]	100		
O=[N+]([O-])c1cc(C2=NOC(c3cc(Cl)cc(Cl)c3)(C(F)(F)F)C2)ccc1-n1ccnn1 (stereo not drawn) [Compound 64]		100	
Nc1cc(C2=NOC(c3cc(Cl)cc(Cl)c3)(C(F)(F)F)C2)ccc1-n1cncn1 (stereo not drawn) [Compound 105, 5-[5-(3,5-dichlorophenyl)-5-(trifluoromethyl)-4,5-dihydroisoxazol-3-yl]-2-(1H-1,2,4-triazol-1-yl)aniline]			100
1-(4-{5-[3,5-bis(trifluoromethyl)phenyl]-5-(trifluoromethyl-4,5-dihydroisoxazol-3-yl}-2-nitrophenyl)-2H-tetrazole [Compound 178]	100		
FC(F)(F)C1(c2cc(Cl)cc(Cl)c2)CC(c2ccc(-n3cc(Br)cn3)cc2)=NO1 (stereo not drawn) [Compound 5]	100		
O=[N+]([O-])c1cc(C2=NOC(c3cc(Cl)cc(Cl)c3)(C(F)(F)F)C2)ccc1-n1ccnc1 (stereo not drawn) [Compound 52]	100		
